Reference: the NIST ThermoML archive (doi:10.1016/j.jct.2015.11.009)

Legend:
[1] = xn = mol fraction of the nth substance listed; conditions: 100 kPa, Liquid; for speed of sound: Frequency=3 MHz, Sing-around technique in a fixed-path interferometer; for mass density: Vibrating tube method
[2] = refractive index (Na D-line) (dimensionless); xn = mol fraction of the nth substance listed; conditions: 100 kPa, Liquid, Standard Abbe refractometry

O=C1CCCN1 [2-pyrrolidinone] + CCCCn1cc[n+](C)c1.F[B-](F)(F)F
Conditions	mass density, [1] [kg/m3]	refractive index, [2]	speed of sound, [1] [m/s]
298.15 K, x2 = 0	1107.16	1.48591	1634.4
298.15 K, x2 = 0.102	1128.93	1.47414	1625.5
298.15 K, x2 = 0.1951	1143.99	1.46433	1618
298.15 K, x2 = 0.3046	1155.01	1.45472	1608.3
298.15 K, x2 = 0.3886	1163.44	1.4487	1601
298.15 K, x2 = 0.5262	1173.25	1.44033	1590.7
298.15 K, x2 = 0.6185	1179.38	1.43543	1584.4
298.15 K, x2 = 0.69	1183.57	1.43222	1579.5
298.15 K, x2 = 0.7844	1188.69	1.4283	1574.3
298.15 K, x2 = 0.8861	1193.47	1.42468	1569.2
303.15 K, x2 = 0	1103.07	1.48403	1618
303.15 K, x2 = 0.102	1124.98	1.47243	1610.2
303.15 K, x2 = 0.1951	1139	1.46228	1604.1
303.15 K, x2 = 0.3046	1151.24	1.45316	1594.5
303.15 K, x2 = 0.3886	1159.65	1.44722	1587.5
303.15 K, x2 = 0.5262	1169.51	1.43885	1578.1
303.15 K, x2 = 0.6185	1175.68	1.43414	1572.5
303.15 K, x2 = 0.69	1179.91	1.43084	1567.2
303.15 K, x2 = 0.7844	1185.05	1.42696	1562.2
303.15 K, x2 = 0.8861	1189.85	1.42338	1557.3
308.15 K, x2 = 0	1098.99	1.48218	1601.6
308.15 K, x2 = 0.102	1121.03	1.47067	1595.5
308.15 K, x2 = 0.1951	1135.12	1.461	1589.2
308.15 K, x2 = 0.3046	1147.43	1.45161	1580.2
308.15 K, x2 = 0.3886	1155.87	1.44571	1573.8
308.15 K, x2 = 0.5262	1165.8	1.43737	1565.4
308.15 K, x2 = 0.6185	1172.01	1.43271	1560.1
308.15 K, x2 = 0.69	1176.26	1.42943	1554.7
308.15 K, x2 = 0.7844	1181.42	1.4256	1550
308.15 K, x2 = 0.8861	1186.26	1.42205	1545.4
313.15 K, x2 = 0	1094.9	1.48033	1585.4
313.15 K, x2 = 0.102	1117.09	1.46895	1580.5
313.15 K, x2 = 0.1951	1131.25	1.45929	1575
313.15 K, x2 = 0.3046	1143.62	1.44998	1566.5
313.15 K, x2 = 0.3886	1152.11	1.44418	1560.7
313.15 K, x2 = 0.5262	1162.12	1.43589	1552.7
313.15 K, x2 = 0.6185	1168.35	1.43125	1547.9
313.15 K, x2 = 0.69	1172.63	1.42805	1542.5
313.15 K, x2 = 0.7844	1177.81	1.4242	1537.9
313.15 K, x2 = 0.8861	1182.68	1.42069	1533.5
318.15 K, x2 = 0	1090.82	1.47841	1570.4
318.15 K, x2 = 0.102	1113.15	1.46715	1566
318.15 K, x2 = 0.1951	1127.38	1.45813	1560.9
318.15 K, x2 = 0.3046	1139.83	1.44832	1553.8
318.15 K, x2 = 0.3886	1148.36	1.44261	1547.8
318.15 K, x2 = 0.5262	1158.47	1.43436	1541.2
318.15 K, x2 = 0.6185	1164.72	1.42972	1536.4
318.15 K, x2 = 0.69	1169.02	1.42665	1530.7
318.15 K, x2 = 0.7844	1174.23	1.42286	1526.2
318.15 K, x2 = 0.8861	1179.12	1.41928	1521.9
323.15 K, x2 = 0	1086.75	1.47649	1553.5
323.15 K, x2 = 0.102	1109.21	1.46522	1550
323.15 K, x2 = 0.1951	1123.52	1.45533	1545.8
323.15 K, x2 = 0.3046	1136.08	1.44663	1539.4
323.15 K, x2 = 0.3886	1144.62	1.44099	1534.3
323.15 K, x2 = 0.5262	1154.82	1.43282	1528
323.15 K, x2 = 0.6185	1161.11	1.42817	1524
323.15 K, x2 = 0.69	1165.45	1.42522	1519.2
323.15 K, x2 = 0.7844	1170.66	1.42148	1514.2
323.15 K, x2 = 0.8861	1175.58	1.41788	1510.2
